Test results reported in patent publication US20150291565A1, “INDOLE COMPOUNDS AND THEIR USE AS ANTIMICROBIALS” (Memorial Sloan-Kettering Cancer Center, priority 2012, published 2015).
≈ marks a conversion by molar mass, not a printed value. Read-outs that look alike come from different tables or passages of the source.

Key:
MRSA = test: Disk diffusion assay, zone of inhibition, MRSA; type: cell-based, Staphylococcus aureus; details: disk diffusion zone of inhibition
M. smegmatis (mc2155) = test: Disk diffusion assay, zone of inhibition, M. smegmatis; type: cell-based; details: disk diffusion zone of inhibition
[1] = system: S. aureus ATCC 29213 (MSSA); test: Broth dilution MIC, S. aureus ATCC 29213; type: cell-based; details: Staphylococcus aureus
[2] = system: S. aureus ATCC 33591 (MRSA); test: Broth dilution MIC, S. aureus ATCC 33591; type: cell-based; details: for MIC: Staphylococcus aureus
S. aureus BAA-39 (MDR) = test: Broth dilution MIC, S. aureus BAA-39; type: cell-based; details: for MIC: Staphylococcus aureus, BAA39
[3] = system: S. pneumoniae ATCC 6301 (PSSP); test: Broth dilution MIC, S. pneumoniae ATCC 6301; type: cell-based; details: Streptococcus pneumoniae
[4] = system: S. pneumoniae ATCC 700674 (PRSP); test: Broth dilution MIC, S. pneumoniae ATCC 700674; type: cell-based; details: Streptococcus pneumoniae
[5] = system: E. faecalis ATCC 29212 (VRE); test: Broth dilution MIC, E. faecalis ATCC 29212; type: cell-based
[6] = system: E. faecium ATCC 700221 (VRE); test: Broth dilution MIC, E. faecium ATCC 700221; type: cell-based
E. faecium CT-26 = test: Broth dilution MIC, E. faecium CT-26; type: cell-based; details: Enterococcus faecium
E. coli ECM 1694 = test: Broth dilution MIC, E. coli ECM 1694; type: cell-based; details: Escherichia coli
E. coli ATCC 25922 = test: Broth dilution MIC, E. coli ATCC 25922; type: cell-based; details: Escherichia coli
K. pneumoniae ATCC 13883 = test: Broth dilution MIC, K. pneumoniae ATCC 13883; type: cell-based; details: Klebsiella pneumoniae
K. pneumoniae ATCC 51503 = test: Broth dilution MIC, K. pneumoniae ATCC 51503; type: cell-based; details: Klebsiella pneumoniae
P. aeruginosa ATCC 9027 = test: Broth dilution MIC, P. aeruginosa ATCC 9027; type: cell-based; details: Pseudomonas aeruginosa
C. albicans ATCC 14053 = test: Broth dilution MIC, C. albicans ATCC 14053; type: cell-based; details: Candida albicans, ATCC14053; Table 1; range 64 down to 0.12 μg/ml
Method: In vitro Anti-bacterial & Anti-fungal Activity Assay: All test compounds were prepared as 6.4 mg/ml stock solutions in DMSO and further diluted according to the NCCLS M7-A6 (Page 5) document with sterile water or appropriate diluent. A working stock of 256 μg/ml was used to do 1:2 serial dilutions in 96-well plates. […] The inoculums were prepared by making a direct sterile water suspension of isolated colonies from 18 to 24 hr agar plates for all organisms (Mueller Hinton, Blood Agar or SDA plates). Each bacterial suspension was adjusted to read between 0.09 and 0.11 absorbance at 620 nm. […] These were further diluted 1/100 in appropriate broth for inoculating the 96-well plates. The C. albicans suspension was adjusted to read between 70 and 75% Transmittance at 530 nm and then diluted 1/500 in RPMI+MOPS broth. All aerobic bacterial and fungal plates were incubated for 18 hrs. at 35° C. […] Plates were read using a Beckman Automated Plate Reader at 650 nm. Readings were confirmed by visual examination of plates. (See Table 1, Table 2, Table 3, and Table 4). […] It is important to note that positive results against C. albicans are often indicative of broad spectrum antifungal activity, while negative results are not necessarily conclusory of a lack of activity against other fungus.

[7] = Table 1, range 64 down to 0.12 μg/ml, read-out: MIC S. aureus ATCC 29213
[8] = Table 2, broth dilution MIC in ug/ml, read-out: MIC S aureus ATCC 29213 MSSA
[9] = Table 1, range 64 down to 0.12 μg/ml, read-out: MIC S. aureus ATCC 33591
[10] = Table 2, broth dilution MIC in ug/ml, read-out: MIC S aureus ATCC 33591 MRSA
[11] = Table 1, range 64 down to 0.12 μg/ml, read-out: MIC S. aureus BAA-39
[12] = Table 2, broth dilution MIC in ug/ml, read-out: MIC S aureus BAA-39 MDR
[13] = ATCC6301, Table 1, range 64 down to 0.12 μg/ml, read-out: MIC S. pneumoniae ATCC 6301
[14] = ATCC6301, Table 2, broth dilution MIC in ug/ml, read-out: MIC S pneumonia ATCC 6301 PSSP
[15] = Table 1, range 64 down to 0.12 μg/ml, read-out: MIC S. pneumoniae ATCC 700674
[16] = Table 2, broth dilution MIC in ug/ml, read-out: MIC S pneumonia ATCC 700674 PRSP
[17] = Enterococcus faecalis, Table 1, range 64 down to 0.12 μg/ml, read-out: MIC E. faecalis ATCC 29212
[18] = Table 2, broth dilution MIC in ug/ml, read-out: MIC E faecalis ATCC 29212 VRE
[19] = Enterococcus faecium, Table 1, range 64 down to 0.12 μg/ml, read-out: MIC E. faecium ATCC 700221
[20] = Table 2, broth dilution MIC in ug/ml, read-out: MIC E faecium ATCC 700221 VRE
[21] = CT26, Table 1, range 64 down to 0.12 μg/ml, read-out: MIC E. faecium CT-26
[22] = CT26, Table 2, broth dilution MIC in ug/ml, read-out: MIC E faecium CT-25
[23] = ECM1694, Table 1, range 64 down to 0.12 μg/ml, read-out: MIC E. coli ECM 1694
[24] = ECM1694, Table 2, broth dilution MIC in ug/ml, read-out: MIC E. coli ECM 1693
[25] = ATCC 25921 / ATCC 25922, Table 2, broth dilution MIC in ug/ml, read-out: MIC E. coli ATCC 25921
[26] = ATCC25922, Table 1, range 64 down to 0.12 μg/ml, read-out: MIC E. coli ATCC 25922
[27] = ATCC13883, Table 1, range 64 down to 0.12 μg/ml, read-out: MIC K. pneumoniae ATCC 13883
[28] = ATCC13883, Table 2, broth dilution MIC in ug/ml, read-out: MIC K pneumonia ATCC 13883
[29] = ATCC51503, Table 1, range 64 down to 0.12 μg/ml, read-out: MIC K. pneumoniae ATCC 51503
[30] = ATCC51503, Table 2, broth dilution MIC in ug/ml, read-out: MIC K pneumonia ATCC 51503
[31] = ATCC 9026 / ATCC 9027, Table 2, broth dilution MIC in ug/ml, read-out: MIC P aeruginosa ATCC 9026
[32] = ATCC9027, Table 1, range 64 down to 0.12 μg/ml, read-out: MIC P. aeruginosa ATCC 9027

SMILES	Zone Size MRSA (MRSA) [mm]	Zone Size M. smegmatis (M. smegmatis (mc2155)) [mm]	MIC [1, 7] [µg/mL]	MIC [1, 8] [µg/mL]	MIC [2, 9] [µg/mL]	MIC [2, 10] [µg/mL]	MIC (S. aureus BAA-39 (MDR); [11]) [µg/mL]	MIC (S. aureus BAA-39 (MDR); [12]) [µg/mL]	MIC [3, 13] [µg/mL]	MIC [3, 14] [µg/mL]	MIC [4, 15] [µg/mL]	MIC [4, 16] [µg/mL]	MIC [5, 17] [µg/mL]	MIC [5, 18] [µg/mL]	MIC [6, 19] [µg/mL]	MIC [6, 20] [µg/mL]	MIC (E. faecium CT-26; [21]) [µg/mL]	MIC (E. faecium CT-26; [22]) [µg/mL]	MIC (E. coli ECM 1694; [23]) [µg/mL]	MIC (E. coli ECM 1694; [24]) [µg/mL]	also measured
c1cnc(-c2ccc(Nc3ccc(-c4cc5ccc(C6=NCCN6)cc5[nH]4)cc3)cc2)cn1 [SKI-10]	11	14.3	0.5 (≈ 1.16 µM)	0.5 (≈ 1.16 µM)	0.5 (≈ 1.16 µM)	0.5 (≈ 1.16 µM)	0.5 (≈ 1.16 µM)	0.5 (≈ 1.16 µM)	≤ 0.12	0.12 (≈ 0.279 µM)	≤ 0.12	0.12 (≈ 0.279 µM)	0.25 (≈ 0.581 µM)	0.25 (≈ 0.581 µM)	≤ 0.12	0.12 (≈ 0.279 µM)	≤ 0.12	0.12 (≈ 0.279 µM)	0.25 (≈ 0.581 µM)	0.25 (≈ 0.581 µM)	MIC ([1]; Table 3, starting at 4 μg/ml, read-out: MIC S. aureus ATCC 29213): 0.5 µg/mL (≈ 1.16 µM); MIC S. aureus ATCC 33591 ([2]; Table 3, starting at 4 μg/ml): 0.5 µg/mL (≈ 1.16 µM); MIC S. aureus BAA-39 (S. aureus BAA-39 (MDR); Table 3, starting at 4 μg/ml): 0.5 µg/mL (≈ 1.16 µM); MIC ([3]; ATCC6301, Table 3, starting at 4 μg/ml, read-out: MIC S. pneumoniae ATCC 6301): 0.12 µg/mL (≈ 0.279 µM); MIC ([4]; Table 3, starting at 4 μg/ml, read-out: MIC S. pneumoniae ATCC 700674): 0.12 µg/mL (≈ 0.279 µM); MIC E. faecalis ATCC 29212 ([5]; Table 3, starting at 4 μg/ml): 0.25 µg/mL (≈ 0.581 µM); MIC ([6]; Enterococcus faecium, Table 3, starting at 4 μg/ml, read-out: MIC E. faecium ATCC 700221): 0.12 µg/mL (≈ 0.279 µM); MIC (E. faecium CT-26; CT26, Table 3, starting at 4 μg/ml, read-out: MIC E. faecium CT-26): 0.12 µg/mL (≈ 0.279 µM); MIC (E. coli ECM 1694; ECM1694, Table 3, starting at 4 μg/ml, read-out: MIC E. coli ECM 1694): 0.25 µg/mL (≈ 0.581 µM); MIC (E. coli ATCC 25922; [25]): 2 µg/mL (≈ 4.65 µM); MIC (E. coli ATCC 25922; [26]): 2 µg/mL (≈ 4.65 µM); MIC (K. pneumoniae ATCC 13883; [27]): 4 µg/mL (≈ 9.29 µM); MIC (K. pneumoniae ATCC 13883; [28]): 4 µg/mL (≈ 9.29 µM); MIC (K. pneumoniae ATCC 51503; [29]): 8 µg/mL (≈ 18.6 µM); MIC (K. pneumoniae ATCC 51503; [30]): 8 µg/mL (≈ 18.6 µM); MIC (P. aeruginosa ATCC 9027; [31]): 16 µg/mL (≈ 37.2 µM); MIC (P. aeruginosa ATCC 9027; [32]): 16 µg/mL (≈ 37.2 µM); MIC (C. albicans ATCC 14053): 8 µg/mL (≈ 18.6 µM)
c1cc(-c2cc3ccc(C4=NCCN4)cc3[nH]2)ccc1Nc1ccc(N2CCOCC2)cc1 [SKI-11]	11	11	8 (≈ 18.3 µM)	8 (≈ 18.3 µM)	4 (≈ 9.14 µM)	4 (≈ 9.14 µM)	4 (≈ 9.14 µM)	4 (≈ 9.14 µM)	4 (≈ 9.14 µM)	4 (≈ 9.14 µM)	16 (≈ 36.6 µM)	16 (≈ 36.6 µM)	4 (≈ 9.14 µM)	4 (≈ 9.14 µM)	1 (≈ 2.29 µM)	1 (≈ 2.29 µM)	1 (≈ 2.29 µM)	1 (≈ 2.29 µM)	1 (≈ 2.29 µM)	1 (≈ 2.29 µM)	MIC (E. coli ATCC 25922; [25]): 16 µg/mL (≈ 36.6 µM); MIC (E. coli ATCC 25922; [26]): 16 µg/mL (≈ 36.6 µM); MIC (K. pneumoniae ATCC 13883; [27]): > 64 µg/mL; MIC (K. pneumoniae ATCC 13883; [28]): 64 µg/mL (≈ 146 µM); MIC (K. pneumoniae ATCC 51503; [29]): > 64 µg/mL; MIC (K. pneumoniae ATCC 51503; [30]): 64 µg/mL (≈ 146 µM); MIC (P. aeruginosa ATCC 9027; [31]): 64 µg/mL (≈ 146 µM); MIC (P. aeruginosa ATCC 9027; [32]): > 64 µg/mL; MIC (C. albicans ATCC 14053): 32 µg/mL (≈ 73.1 µM)
